According to patent US5786330A, “Peptide compounds which are therapeutically active in the cascade of blood coagulation, process for preparing them and pharmaceutical compositions containing them” (Adir et Compagnie, priority 1993, dated 1998):
*1 amine or outer side, *2 acyl side, *3 side chain or, on linkers, in order; H or OH if unused. Where a SMILES comes first, the peptide text is derived from it. [ ]: non-standard residue; d: D form. Phe(4-PO3H2) = N[C@@H](Cc1ccc(P(=O)(O)O)cc1)C(=O)O; Oic = O=C(O)[C@@H]1C[C@@H]2CCCC[C@@H]2N1; X1 = O=C([C@@H]1C2CCC(CC2)N1[*:1])[*:2]

Tests used:
human thrombin [1] = molecular target: T1, human thrombin (Homo sapiens, UniProt P00734); assay: inhibition of thrombin, chromogenic substrate H-D-Phe-Pip-Arg-pNA (S 2238); format: biochemical; settings: 20 C, 405 nm
T1 construct: human thrombin (Sigma, specific activity 3230 NIHU/mg); purchased Sigma
Method: (§1) In order to evaluate in vitro the inhibitory activity of the products of the invention on human thrombin (Sigma, specific activity 3230 NIHU/mg), human fibrinogen (purified or plasmatic) (Fg) or the chromogenic substrate H-D-Phe-Pip-Arg-pNA ([…], S 2238, Kabi) were added to a given quantity of thrombin (0.7 or 2 nM) previously incubated with or without the test inhibitor (20 C, 10 min).
(§2) In order to evaluate in vitro the selectivity of these products towards various coagulation serine proteases, the same procedure was applied to purified human plasmin (2 nM, Stago), to purified human activated factor X (2 nM, Stago), to kallikrein (2 nM, sigma), to urokinase (2 nM, sigma), to plasminogen tissue activator (t-PA; 2 nM, Stago) and to purified human activated protein C (2 nM, Stago) using, as substrate, various paranitroanilide-containing peptides. The inhibitors, enzymes and substrates are diluted in the same buffer ([…] phosphate buffer pH 7.4, containing 0.12M sodium chloride and 0.05% bovine serum albumin) and then distributed in a polystyrene microplate in a volume of 50 l.
(§3) The fibrin formed by thrombin or the paranitroanilide liberated by the action of the serin protease is measured spectrophotometrically at 405 nm after reacting for 15 to 30 minutes at 20° C. […] The results are expressed in IC50 value: the concentration in nM which inhibits the enzymatic activity by 50%.

human thrombin [2] = molecular target: T1, human thrombin; assay: inhibition of thrombin, fibrinogen as substrate; format: biochemical; settings: 20 C, fibrin measured at 405 nm
Method: as §1, §2, §3

[3] = tested on: activated cephalin time (ACT), OFA rats; assay: activated cephalin time (ACT) ex vivo in OFA rats; settings: rat, 0.8 mg/kg i.v.
Method: (§4) In the presence of a standard quantity of thrombin or activated cephalin, a normal plasma coagulates within a defined and constant time called thrombin time (TT) and activated cephalin time (ACT) respectively. The extension of these coagulation times by pharmacological substances reflects an anticoagulant effect.
(§5) The effect of the products was tested ex vivo in OFA rats anesthetized with sodium pentobarbital (60 mg/kg i.p.) The carotid artery and the jugular vein are catheterized. After installation of the catheters, 1.5 cm^3 of arterial blood are collected over citrate (0.109M). 30 minutes later, the test product is administered in a volume of 1 ml by i.v. Arterial samples (1.5 cm^3) are then collected at […], 3 min, 5 min, 15 min, 30 min and 60 min. At each collection of sample, 1.5 cm^3 of citrated physiological saline is reinjected into the animal via the carotid.

[4] = tested on: thrombin time (TT), OFA rats; assay: thrombin time (TT) ex vivo in OFA rats; settings: rat, 0.8 mg/kg i.v.
Method: as §4, §5

[5] = molecular target: T2, purified human activated factor X (Homo sapiens, UniProt P00742); assay: selectivity towards coagulation serine proteases: activated factor X; format: biochemical; settings: 2 nM enzyme, paranitroanilide-containing peptide substrate; read-out: IC50 with respect to activated factor X
T2 construct: purchased Stago
T2 sequence (P00742 235-488 limits assumed): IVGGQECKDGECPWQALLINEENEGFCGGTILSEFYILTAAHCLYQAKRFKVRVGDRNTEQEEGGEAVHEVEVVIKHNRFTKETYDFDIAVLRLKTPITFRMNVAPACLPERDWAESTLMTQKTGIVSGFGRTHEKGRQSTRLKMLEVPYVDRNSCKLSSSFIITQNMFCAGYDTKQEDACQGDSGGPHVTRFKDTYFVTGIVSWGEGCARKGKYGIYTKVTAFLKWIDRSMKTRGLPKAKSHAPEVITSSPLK
T2 sequence (P00742 41-179 limits assumed): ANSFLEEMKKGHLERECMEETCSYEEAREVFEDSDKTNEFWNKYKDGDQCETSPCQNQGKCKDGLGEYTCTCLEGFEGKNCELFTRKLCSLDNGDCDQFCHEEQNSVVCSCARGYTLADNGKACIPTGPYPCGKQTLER
Method: as §2, §3

kallikrein = assay: selectivity towards coagulation serine proteases: kallikrein; format: biochemical; settings: 2 nM enzyme, paranitroanilide-containing peptide substrate; read-out: IC50 with respect to kallikrein
Method: as §2, §3

purified human plasmin = molecular target: T3, purified human plasmin (Homo sapiens, UniProt P00747); assay: selectivity towards coagulation serine proteases: plasmin; format: biochemical; settings: 2 nM enzyme, paranitroanilide-containing peptide substrate; read-out: IC50 with respect to plasmin
T3 construct: purified human plasmin (2 nM, Stago); purchased Stago
T3 sequence (P00747 581-810 limits assumed): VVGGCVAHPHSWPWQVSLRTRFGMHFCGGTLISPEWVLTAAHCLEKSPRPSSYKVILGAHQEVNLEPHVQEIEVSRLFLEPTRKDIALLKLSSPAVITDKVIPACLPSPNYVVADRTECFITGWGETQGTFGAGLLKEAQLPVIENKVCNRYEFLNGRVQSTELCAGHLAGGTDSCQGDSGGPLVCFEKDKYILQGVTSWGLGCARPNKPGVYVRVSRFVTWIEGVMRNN
T3 sequence (P00747 97-580 limits assumed): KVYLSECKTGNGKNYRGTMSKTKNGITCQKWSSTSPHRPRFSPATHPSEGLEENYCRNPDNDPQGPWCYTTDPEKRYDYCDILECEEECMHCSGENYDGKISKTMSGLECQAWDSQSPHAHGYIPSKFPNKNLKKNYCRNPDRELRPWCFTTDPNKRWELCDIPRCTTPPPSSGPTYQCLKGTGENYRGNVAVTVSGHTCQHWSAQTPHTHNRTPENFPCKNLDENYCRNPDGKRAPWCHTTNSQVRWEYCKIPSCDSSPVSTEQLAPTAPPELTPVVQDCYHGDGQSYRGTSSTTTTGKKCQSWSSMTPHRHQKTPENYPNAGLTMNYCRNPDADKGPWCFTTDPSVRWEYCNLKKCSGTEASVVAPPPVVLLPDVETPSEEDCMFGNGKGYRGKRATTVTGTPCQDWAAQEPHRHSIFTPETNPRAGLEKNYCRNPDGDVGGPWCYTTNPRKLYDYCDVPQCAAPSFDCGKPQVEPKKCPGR
Method: as §2, §3

[6] = tested on: activated cephalin time (ACT), human plasma; assay: activated cephalin time (ACT) in vitro on human plasma; format: biochemical; settings: human plasma low in platelets, citrate
Method: as §4
(§6) The in vitro effect of the products of the invention was measured on human plasma. Blood was collected by venous puncture in a tube containing citrate. After decantation (1200 g, 10 min), the plasma low in platelets is decanted so as to then carry out the coagulation tests. […] The compound of Example 1 doubles the TT at the concentration of […] and the ACT at the concentration of […].

[7] = molecular target: T4, purified human activated protein C (Homo sapiens, UniProt P04070); assay: selectivity towards coagulation serine proteases: activated protein C; format: biochemical; settings: 2 nM enzyme, paranitroanilide-containing peptide substrate; read-out: IC50 with respect to activated protein C
T4 construct: purchased Stago
T4 sequence (P04070 212-450 limits assumed): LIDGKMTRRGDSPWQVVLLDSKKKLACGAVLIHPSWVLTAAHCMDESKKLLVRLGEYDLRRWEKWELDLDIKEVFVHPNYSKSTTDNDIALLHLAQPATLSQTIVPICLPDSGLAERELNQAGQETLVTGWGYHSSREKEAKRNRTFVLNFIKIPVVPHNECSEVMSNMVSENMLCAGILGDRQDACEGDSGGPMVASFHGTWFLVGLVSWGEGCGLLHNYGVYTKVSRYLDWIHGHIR
T4 sequence (P04070 43-197 limits assumed): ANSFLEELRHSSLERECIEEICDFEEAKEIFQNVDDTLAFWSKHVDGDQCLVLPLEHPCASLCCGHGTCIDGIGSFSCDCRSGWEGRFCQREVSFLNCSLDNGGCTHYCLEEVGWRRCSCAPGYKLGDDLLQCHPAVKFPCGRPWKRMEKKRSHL
Method: as §2, §3

male OFA rats = assay: venous thrombosis induced by ligation of the vena cava inferior (weight of the clot); format: in vivo; settings: rat, clot withdrawn 25 minutes after ligation
Method: The test animals are anesthetized by administration of sodium pentobarbital (50 mg/kg i.p.). 15 minutes before the ligation, the animals are treated with the test products via the i.v. route. The clot is withdrawn from the vena cava 25 minutes after the ligation, it is weighed after desiccation (24 hours at 60 C.).

[8] = tested on: thrombin time (TT), human plasma; assay: thrombin time (TT) in vitro on human plasma; format: biochemical; settings: human plasma low in platelets, citrate
Method: as §4, §6

[9] = molecular target: T5, plasminogen tissue activator (t-PA) (Homo sapiens, UniProt P00750); assay: selectivity towards coagulation serine proteases: t-PA; format: biochemical; settings: 2 nM enzyme, paranitroanilide-containing peptide substrate; read-out: IC50 with respect to t-PA
T5 construct: purchased Stago
T5 sequence (P00750 23-562 limits assumed, species assumed): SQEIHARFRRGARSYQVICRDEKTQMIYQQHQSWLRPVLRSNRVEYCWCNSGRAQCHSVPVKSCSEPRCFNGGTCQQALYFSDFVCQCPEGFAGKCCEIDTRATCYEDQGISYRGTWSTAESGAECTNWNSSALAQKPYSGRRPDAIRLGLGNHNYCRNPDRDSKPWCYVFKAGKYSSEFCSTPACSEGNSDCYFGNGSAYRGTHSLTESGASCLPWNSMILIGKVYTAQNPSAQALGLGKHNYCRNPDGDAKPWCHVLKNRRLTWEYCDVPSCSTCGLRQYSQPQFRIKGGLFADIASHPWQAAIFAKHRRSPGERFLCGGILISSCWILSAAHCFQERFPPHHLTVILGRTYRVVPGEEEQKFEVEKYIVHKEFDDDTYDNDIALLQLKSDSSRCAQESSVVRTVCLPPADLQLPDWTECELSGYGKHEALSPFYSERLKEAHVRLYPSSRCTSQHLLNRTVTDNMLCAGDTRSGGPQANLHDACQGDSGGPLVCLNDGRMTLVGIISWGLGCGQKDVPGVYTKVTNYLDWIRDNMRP
Method: as §2, §3

urokinase = molecular target: T6, urokinase (Homo sapiens, UniProt P00749); assay: selectivity towards coagulation serine proteases: urokinase; format: biochemical; settings: 2 nM enzyme, paranitroanilide-containing peptide substrate; read-out: IC50 with respect to urokinase
T6 construct: purchased sigma
Method: as §2, §3

CC[C@H](C)[C@H](NC(=O)[C@@H]1C2CCC(CC2)N1C(=O)[C@H](CCC(=O)O)NC(=O)[C@H](Cc1ccccc1)NC(=O)[C@H](CC(=O)O)NC(=O)CNC(=O)[C@H](CC(N)=O)NC(=O)CNC(=O)CNC(=O)CNC(=O)CNC(=O)[C@@H]1CCCN1C(=O)[C@H](CCCNC(=N)N)NC(=O)[C@@H]1CCCN1C(=O)[C@H](N)Cc1ccccc1)C(=O)N1CCC[C@H]1C(=O)N[C@@H](CCC(=O)O)C(=O)N[C@@H](CCC(=O)O)C(=O)N[C@@H](Cc1ccc(P(=O)(O)O)cc1)C(=O)N[C@@H](CC(C)C)C(=O)N[C@H](CCC(=O)O)C(=O)O [Example 1, H-phe-Pro-Arg-Pro-(Gly)4 -Asn-Gly-Asp-Phe-Glu-Abo-Ile-Pro-(Glu)2 -Phe(pPO3 H2)-Leu-glu-OH] (H-[dF]PRPGGGGNGDFE[X1]IPEE[Phe(4-PO3H2)]L[dE]-OH)
IC50 (human thrombin [1]): 18 nM | IC50 (human thrombin [2]): 6.1 nM

CC[C@H](C)[C@H](NC(=O)[C@@H]1C2CCC(CC2)N1C(=O)[C@H](CCC(=O)O)NC(=O)[C@H](Cc1ccccc1)NC(=O)[C@H](CC(=O)O)NC(=O)CNC(=O)[C@H](CC(N)=O)NC(=O)CNC(=O)CNC(=O)CNC(=O)CNC(=O)[C@@H]1CCCN1C(=O)[C@H](CCCNC(=N)N)NC(=O)[C@@H]1C[C@@H]2CCCC[C@@H]2N1C(=O)[C@H](N)Cc1ccccc1)C(=O)N1CCC[C@H]1C(=O)N[C@@H](CCC(=O)O)C(=O)N[C@@H](CCC(=O)O)C(=O)N[C@@H](Cc1ccc(P(=O)(O)O)cc1)C(=O)N[C@@H](CC(C)C)C(=O)N[C@H](CCC(=O)O)C(=O)O [Example 2, H-phe-Oic-Arg-Pro-(Gly)4 -Asn-Gly-Asp-Phe-Glu-Abo-Ile-Pro-(Glu)2 -Phe(pPO3 H2)-Leu-glu-OH] (H-[dF][Oic]RPGGGGNGDFE[X1]IPEE[Phe(4-PO3H2)]L[dE]-OH)
IC50 (human thrombin [1]): 15 nM | IC50 (human thrombin [2]): 4 nM

CC[C@H](C)[C@H](NC(=O)[C@H](CCC(=O)O)NC(=O)[C@H](CCC(=O)O)NC(=O)[C@H](Cc1ccccc1)NC(=O)[C@H](CC(=O)O)NC(=O)CNC(=O)[C@H](CC(N)=O)NC(=O)CNC(=O)CNC(=O)CNC(=O)CNC(=O)[C@@H]1CCCN1C(=O)[C@H](CCCNC(=N)N)NC(=O)[C@@H]1CCCN1C(=O)[C@H](N)Cc1ccccc1)C(=O)N1CCC[C@H]1C(=O)N[C@@H](CCC(=O)O)C(=O)N[C@@H](CCC(=O)O)C(=O)N[C@@H](Cc1ccc(O)cc1)C(=O)N[C@@H](CC(C)C)C(=O)O [hirulog-1]
Increase in the ACT (multiplicative factor) ([3]; 1.5 min): 3.8 | Increase in the ACT (multiplicative factor) ([3]; 3 min): 3.2 | Increase in the ACT (multiplicative factor) ([3]; 5 min): 2.6 | Increase in the ACT (multiplicative factor) ([3]; 15 min): 2.1 | Increase in the ACT (multiplicative factor) ([3]; 30 min): 1.6 | Increase in the ACT (multiplicative factor) ([3]; 60 min): 1.3 | Increase in the TT (multiplicative factor) ([4]; 1.5 min): 13 | Increase in the TT (multiplicative factor) ([4]; 3 min): 11 | Increase in the TT (multiplicative factor) ([4]; 5 min): 9.8 | Increase in the TT (multiplicative factor) ([4]; 15 min): 6.6 | Increase in the TT (multiplicative factor) ([4]; 30 min): 4.2 | Increase in the TT (multiplicative factor) ([4]; 60 min): 2.2 | IC50 [5]: > 33000 nM | IC50 (kallikrein): > 33000 nM | IC50 (purified human plasmin): > 33000 nM | concentration that doubles the ACT [6]: 0.2 M | IC50 [7]: > 33000 nM | Decrease in the weight of the clot in % (male OFA rats; 0.1 mg/kg i.v. 15 minutes before ligation): -0% | Decrease in the weight of the clot in % (male OFA rats; 1 mg/kg i.v. 15 minutes before ligation): -46% | concentration that doubles the TT [8]: 0.07 M | IC50 [9]: > 33000 nM | IC50 (urokinase): > 33000 nM
